Where a SMILES comes first, the peptide text is derived from it. Where no end group is shown, it is not given here. The star is where a group is joined. X1 = O=C(c1c(Br)c(Br)c(Br)c2nn[nH]c12)*
Experiments:
hCK2α [1] = molecular target: T1, hCK2α (Homo sapiens, UniProt P68400); assay: ADP-Glo kinase assay, inhibitory activity towards human CK2α; format: biochemical
T1 construct: His-tag; made in house
Protocol: The ADP-Glo kinase assay (Promega) was used to measure the inhibition effect of the tested compounds. The kinase assay was carried in 96-well plate in volume of 25 μl in 20 mM Tris–HCl (pH 7.5) buffer, containing 100 ng hCK2α (1 μl), 10 μM CK2 substrate peptide […] (Biaffin GmbH & Co KG), 10 μM ATP, 20 mM MgCl2 and 2.5 μl of serially diluted ligand in DMSO. The reaction was initiated with enzyme in and kept going for 20 min at 30 °C. Reaction was stopped by adding 25 μl of ADP-Glo reagent. After incubation at room temperature for 40 min (to consume the remaining […]) 50 μl of kinase detection reagent were added and incubated for additional 30 minutes to produce luminescence signal. Luminescence was measured with The SpectraMax iD3 Multi-Mode Microplate Reader (Molecular Devices).

hCK2α [2] = molecular target: T1, hCK2α; assay: Relaxation-filtered 1H NMR (transverse relaxation) of peptides in the presence of hCK2α; format: binding; conditions: for R2,f, relaxation rate in the presence of hCK2α: 25 μM hCK2α, 2.5 mM peptide (100-fold excess), 25 mM Tris-HCl pH 7, 0.25 M NaCl, 10% D2O, global two-exponential fit, higher = stronger binding; for R2,f, relaxation rate in the presence of hCK2α / R2,s, relaxation rate for the free peptide: 25 °C; for Relative binding to hCK2α, in words: relaxation-filtered NMR, compared with the other tested peptides; for R2,s, relaxation rate for the free peptide: same samples, slower component of the global two-exponential fit
Protocol: NMR samples containing tested peptides and hCk2α were prepared in 25 mM Tris–HCl (pH 7, 0.25 M NaCl) buffer with 10% D2O. The protein concentration was 25 μM, and a 100-fold peptide excess (2.5 mM) was used throughout the studies.
The scoring of the peptides’ binding affinities towards hCK2α was done according to the results of ^1H transverse (T2) relaxation filtering experiment. All spectra were recorded at 25 °C on Bruker Avance 500 NMR spectrometer (11.7 T) using 18 delays (0, 1, 2, 3, 4, 5, 10, 15, 20, 25, 30, 35, 40, 45, 50, 100, 150 and 200 ms). The spectra of 7500 Hz spectral width, 16k data points each, were collected using 16 scans with 2.0 s recycling delay preceded by 8 dummy scans.
NMR data were further processed and analyzed with the SpinWorks software (version 4.2.8.0), using cosine-squared window function and Gaussian filter resulting in 0.3 Hz broadening with no solvent filter applied prior to Fourier transformation. We analyzed ^1H transverse relaxation rates of selected nuclei representative for each type of amino acid residues present in the tested peptides, i.e Hγ of Glu (2.3ppm), Hβ of Asp (2.8ppm), Hβ of Ser (3.8ppm), Hγ(CH3) of Thr (1.1 ppm) and Hε of Lys (2.9ppm), respectively. Additionally, the resonance signals of amide protons (8.2–8.9ppm) were also analyzed. We performed the relaxation-filtered experiment, with the relaxation delay varying in the range of 1 to 200 ms. Variation in the intensity of particular resonance signals were analyzed using the model of two-exponential decay (1):1 y=A1⋅exp(t∗R2,f)+A2⋅exp(t∗R2,s)+y0 where R2,s and R2,f are the transverse relaxation rates of the free and the fraction of the virtually bound peptide, respectively. For each peptide the global optimization procedure was applied for all identified resonance signals.

T1 sequence (P68400 whole entry): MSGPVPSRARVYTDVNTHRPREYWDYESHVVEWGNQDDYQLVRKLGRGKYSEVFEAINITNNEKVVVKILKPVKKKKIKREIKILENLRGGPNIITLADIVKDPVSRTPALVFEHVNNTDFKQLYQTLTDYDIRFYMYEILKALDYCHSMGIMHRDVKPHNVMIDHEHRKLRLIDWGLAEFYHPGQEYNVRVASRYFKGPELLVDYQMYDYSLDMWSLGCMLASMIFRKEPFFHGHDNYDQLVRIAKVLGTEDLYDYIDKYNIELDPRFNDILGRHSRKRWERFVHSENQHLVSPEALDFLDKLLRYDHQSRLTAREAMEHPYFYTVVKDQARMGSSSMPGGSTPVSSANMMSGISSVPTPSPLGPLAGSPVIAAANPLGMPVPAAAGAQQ

R2,f, relaxation rate in the presence of hCK2α (hCK2α [2]) | R2,s, relaxation rate for the free peptide (hCK2α [2]) | Molecule | further results
– | – | O=C(O)c1c(Br)c(Br)c(Br)c2nn[nH]c12 [7-COOH-Br3Bt] | IC50 (hCK2α [1]; ADP-Glo, 100 ng hCK2α, 10 μM RRRDDDSDDD, 10 μM ATP, 20 mM MgCl2, pH 7.5, 20 min 30 °C, global fit of three independent experiments): 8 ± 6.3 µM
– | – | NC(=O)[C@H](CCC(=O)O)NC(=O)[C@H](CCC(=O)O)NC(=O)[C@H](CCC(=O)O)NC(=O)[C@H](CO)NC(=O)[C@H](CCC(=O)O)NC(=O)[C@@H](N)CCCCNC(=O)c1c(Br)c(Br)c(Br)c2nn[nH]c12 [bi-substrate inhibitor] (H-K(X1)ESEEE-NH2) | Enhancement of inhibitory activity versus low-mass precursor 7-COOH-Br3Bt (hCK2α [1]; ratio of IC50 values): over 10 fold
7.1 ± 0.8 s⁻¹ | – | DDTDDD-NH2 | Relative binding to hCK2α, in words (hCK2α [2]): binds visibly weaker
– | – | DESEEE-NH2 [peptide named only in b23, possibly a misprint of DETEEE-NH2] | Relative binding to hCK2α, in words (hCK2α [2]): lower affinity
10.4 ± 1.6 s⁻¹ | 2.2 ± 0.6 s⁻¹ | DETEEE-NH2 | –
14.9 ± 2.5 s⁻¹ | 1.5 ± 0.7 s⁻¹ | EDTEEE-NH2 | –
15.4 ± 2.1 s⁻¹ | 2.3 ± 0.5 s⁻¹ | EETDEE-NH2 | –
17.2 ± 4.8 s⁻¹ | 3.7 ± 0.5 s⁻¹ | EETEDE-NH2 | –
16.1 ± 2.3 s⁻¹ | 2.2 ± 0.5 s⁻¹ | EETEED-NH2 | –
